Columns and labels:
[1] = refractive index (Na D-line) (dimensionless); conditions: 101.33 kPa, Liquid, Standard Abbe refractometry
[2] = for surface tension liquid-gas: Maximal bubble pressure; for mass density: 101.33 kPa, Liquid, Vibrating tube method

CCOCCn1cc[n+](C)c1.[Cl-] [1-(2-ethoxyethyl)-3-methylimidazolium chloride]
Conditions | mass density, [2] [kg/m3] | refractive index, [1] | surface tension liquid-gas, [2] [mN/m]
288.15 K | 1143.13 | 1.5269 | 47.8
293.15 K | 1139.98 | 1.5255 | 47.3
298.15 K | 1136.83 | 1.524 | 46.9
303.15 K | 1133.69 | 1.5225 | 46.5
308.15 K | 1130.57 | 1.5206 | 46
313.15 K | 1127.45 | 1.5184 | 45.6
318.15 K | 1124.37 | 1.5159 | 45.2
323.15 K | 1121.28 | 1.5142 | 44.8
328.15 K | 1118.21 | 1.5119 | 44.3

CCOCCn1cc[n+](C)c1.[Br-] [1-(2-ethoxyethyl)-3-methylimidazolium bromide]
Conditions | mass density, [2] [kg/m3] | refractive index, [1] | surface tension liquid-gas, [2] [mN/m]
288.15 K | 1360.32 | 1.5473 | 50.9
293.15 K | 1356.56 | 1.5458 | 50.5
298.15 K | 1352.79 | 1.5441 | 50.2
303.15 K | 1349.05 | 1.5426 | 49.8
308.15 K | 1345.33 | 1.5409 | 49.5
313.15 K | 1341.63 | 1.5391 | 49.2
318.15 K | 1337.99 | 1.5376 | 48.9
323.15 K | 1334.35 | 1.5357 | 48.6
328.15 K | 1330.24 | 1.5341 | 48.3

COCCn1cc[n+](C)c1.[Cl-] [1-(2-methoxyethyl)-3-methylimidazolium chloride]
Conditions | mass density, [2] [kg/m3] | refractive index, [1] | surface tension liquid-gas, [2] [mN/m]
288.15 K | 1168.6 | 1.5201 | 49.6
293.15 K | 1165.46 | 1.5185 | 49.2
298.15 K | 1162.31 | 1.516 | 48.7
303.15 K | 1159.17 | 1.5142 | 48.4
308.15 K | 1156.04 | 1.5121 | 48
313.15 K | 1152.91 | 1.5103 | 47.6
318.15 K | 1149.78 | 1.5083 | 47.1
323.15 K | 1146.63 | 1.5069 | 46.7
328.15 K | 1143.27 | 1.5046 | 46.2

Reference: the NIST ThermoML archive (doi:10.1016/j.jct.2019.06.027)
